PubChem BioAssay AID1963984 (Molecular Pharmacology Branch, DTP, NCI, 2024)
pIC50: −log10 of the molar value.

System: 233499-124-R-J3-PDC spheroids with HUVEC/MSC, viability
Assay: Anticancer human tumor 233499-124-R-J3-PDC patient-derived colon adenocarcinoma cell line growth inhibition [PI3K]
Conditions: for pIC50: curve of first compound; for viability, T/C: stronger effect = lower value
Text: Combinatorial screen of targeted agents with the PI3K inhibitors inavolisib, alpelisib, duvelisib, and copanlisib in multi-cell type tumor spheroids
A high-throughput screen of multi-cell type tumor spheroids was designed to identify active combinations of targeted small molecules and PI3K pathway inhibitors. Complex spheroids include a stromal component modeled by human endothelial cells (HUVEC) and fibroblasts modeled by human mesenchymal stem cells (MSCs). The concentration ranges selected for each drug and investigational agent were based upon clinically achievable concentrations if the clinical Cmax of the agent was known.
Compounds. The drugs and investigational agents: inavolisib (NSC800729), alpelisib (NSC765974), duvelisib (NSC772469), copanlisib (NSC816437), ipatasertib (NSC767898), afuresertib (NSC778305), talazoparib (NSC767125), sapanisertib (NSC764658), selumetinib (NSC741078), tovorafenib (DAY101, NSC766906), vemurafenib (NSC761431), ravoxertinib (NSC781343), sotorasib (NSC818433), MRTX1133 (NSC 836407), abemaciclib (NSC 768073), palbociclib (NSC758247), venetoclax (NSC 766270), SY5609 (NSC837396), enzalutamide (NSC755605), and darolutamide (NSC825331), were obtained from the National Cancer Institute (NCI) Developmental Therapeutics Program Chemical Repository. The FDA-approved anticancer drug set is available from the NCI Developmental Therapeutics Program. […] The stock solutions were prepared in dimethyl sulfoxide (DMSO, Sigma-Aldrich, St. Louis, MO, cat. D2650) at 800-fold the tested concentration and stored at -70 degrees C prior to their use. All drugs and investigational agents were tested over a range starting from a high concentration at or near the clinical Cmax and decreasing in half-log increments. If the clinical Cmax for an agent had not been determined, the highest concentration tested was 10 microM.
Cell Culture. All cells were maintained in an incubator at 37 degrees C and 5% CO2 with 95% humidity. The PDC lines were cultured according to standard operating procedures established by the NCI PDMR (https://pdmr.cancer.gov/sops/default.htm). All PDCs were thawed and cultured in Matrigel-coated flasks prepared with a working solution of 1X Ham's F-12 nutrient mix, without supplementation (Invitrogen, Waltham, MA, cat. 11765054), 100 U/mL penicillin-streptomycin (Invitrogen, cat. 15140122), and 2.5% Matrigel (Corning Inc., Corning, NY, cat. 354248) for the first three passages. The 354836-022-R-J1-PDC, 475296-252-R-J1-PDC, and 997726-040-R-J2-PDC lines were cultured in 6A media, which includes advanced DMEM/F-12 (Thermo Fisher Scientific, cat. 12634028), 10 mM HEPES (Thermo Fisher Scientific, cat. 15630080), 1X GlutaMAX supplement (Thermo Fisher Scientific, cat. 35050061), 0.1 mg/mL primocin (InvivoGen, San Diego, CA, cat. ant-pm-2), 10% defined fetal bovine serum, heat inactivated (HyClone Laboratories Inc., Logan, UT, cat. SH30070.03HI), 50% L-WRN conditioned media (ATCC, cat. CRL-3276), 1.25 mM N-Acetyl-L-cysteine (Sigma-Aldrich, cat. A9165), 10 mM nicotinamide (Sigma-Aldrich, cat. N0636), 1X B-27 supplement (Thermo Fisher Scientific, cat. 17504044), 1X N-2 supplement (Thermo Fisher Scientific, cat. 17502048), and 10 microM Y-27632 dihydrochloride (Tocris Bioscience, Bristol, United Kingdom, cat. 1254). The 624824-186-R-J2-PDC line was cultured in 6C/Colon 1B media, which includes all 6A media components plus 50 ng/mL human EGF recombinant protein (Thermo Fisher Scientific, cat. PHG0311). […]
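Note: spheroids exposed to agents for seven days before readout.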
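Throughout, for viability, T/C: percent viability relative to DMSO vehicle control taken as 100%.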

With `CNC(=O)c1ccc(N2C(=S)N(c3ccc(C#N)c(C(F)(F)F)c3)C(=O)C2(C)C)cc1F` + CC(Nc1ccc2c(c1)OCCn1cc(N3C(=O)OCC3C(F)F)nc1-2)C(N)=O the pIC50 (second compound 0.00316 µM) was 5.09, the pIC50 (second compound 0.01 µM) was < 5.00 and the pIC50 (second compound 0.0316 µM) was < 5.00. The pIC50 (second compound 0.1 µM) was < 5.00, the pIC50 (second compound 0.316 µM) was < 5.00 and the pIC50 (second compound 1 µM) was 6.84. For the same compound, the viability, T/C (second compound 0.00316 µM, first compound 0.0316 µM) was 85.8%, the viability, T/C (second compound 0.00316 µM, first compound 0.1 µM) was 82.7% and the viability, T/C (second compound 0.00316 µM, first compound 0.316 µM) was 79.2%. For the same compound, the viability, T/C (second compound 0.00316 µM, first compound 1 µM) was 92%, the viability, T/C (second compound 0.00316 µM, first compound 3.16 µM) was 78.3% and the viability, T/C (second compound 0.00316 µM, first compound 10 µM) was 42.9%. The viability, T/C (second compound 0.01 µM, first compound 0.0316 µM) was 88.3%, the viability, T/C (second compound 0.01 µM, first compound 0.1 µM) was 98.5% and the viability, T/C (second compound 0.01 µM, first compound 0.316 µM) was 95%. For the same compound, the viability, T/C (second compound 0.01 µM, first compound 1 µM) was 76.9%, the viability, T/C (second compound 0.01 µM, first compound 3.16 µM) was 71.2% and the viability, T/C (second compound 0.01 µM, first compound 10 µM) was 72.2%. The viability, T/C (second compound 0.0316 µM, first compound 0.0316 µM) was 88.9%, the viability, T/C (second compound 0.0316 µM, first compound 0.1 µM) was 54.9% and the viability, T/C (second compound 0.0316 µM, first compound 0.316 µM) was 76%. The viability, T/C (second compound 0.0316 µM, first compound 1 µM) was 89.2%, the viability, T/C (second compound 0.0316 µM, first compound 3.16 µM) was 88.1% and the viability, T/C (second compound 0.0316 µM, first compound 10 µM) was 67.4%. For the same compound, the viability, T/C (second compound 0.1 µM, first compound 0.0316 µM) was 84.7%, the viability, T/C (second compound 0.1 µM, first compound 0.1 µM) was 71.8% and the viability, T/C (second compound 0.1 µM, first compound 0.316 µM) was 94.4%. It also gave a viability, T/C (second compound 0.1 µM, first compound 1 µM) of 77.9%, a viability, T/C (second compound 0.1 µM, first compound 3.16 µM) of 69.5% and a viability, T/C (second compound 0.1 µM, first compound 10 µM) of 55.6%. The viability, T/C (second compound 0.316 µM, first compound 0.0316 µM) was 88.2%, the viability, T/C (second compound 0.316 µM, first compound 0.1 µM) was 38% and the viability, T/C (second compound 0.316 µM, first compound 0.316 µM) was 71.2%. For the same compound, the viability, T/C (second compound 0.316 µM, first compound 1 µM) was 76.2%, the viability, T/C (second compound 0.316 µM, first compound 3.16 µM) was 59.1% and the viability, T/C (second compound 0.316 µM, first compound 10 µM) was 53.6%. It also gave a viability, T/C (second compound 1 µM, first compound 0.0316 µM) of 52.5%, a viability, T/C (second compound 1 µM, first compound 0.1 µM) of 52.1% and a viability, T/C (second compound 1 µM, first compound 0.316 µM) of 42.8%. For the same compound, the viability, T/C (second compound 1 µM, first compound 1 µM) was 50.2%, the viability, T/C (second compound 1 µM, first compound 3.16 µM) was 43.7% and the viability, T/C (second compound 1 µM, first compound 10 µM) was 34.6%.

`Cn1cnc2c(F)c(Nc3ccc(Br)cc3Cl)c(C(=O)NOCCO)cc21` + CC(Nc1ccc2c(c1)OCCn1cc(N3C(=O)OCC3C(F)F)nc1-2)C(N)=O gave a pIC50 (second compound 0.00316 µM) of 6.32, a pIC50 (second compound 0.01 µM) of 6.27 and a pIC50 (second compound 0.0316 µM) of 6.58. The pIC50 (second compound 0.1 µM) was 6.70, the pIC50 (second compound 0.316 µM) was 6.87 and the pIC50 (second compound 1 µM) was 7.77. The viability, T/C (second compound 0.00316 µM, first compound 0.00949 µM) was 85%, the viability, T/C (second compound 0.00316 µM, first compound 0.03 µM) was 80% and the viability, T/C (second compound 0.00316 µM, first compound 0.0949 µM) was 75.1%. It also gave a viability, T/C (second compound 0.00316 µM, first compound 0.3 µM) of 57%, a viability, T/C (second compound 0.00316 µM, first compound 0.949 µM) of 38.4% and a viability, T/C (second compound 0.00316 µM, first compound 3 µM) of 18.7%. For the same compound, the viability, T/C (second compound 0.01 µM, first compound 0.00949 µM) was 79.7%, the viability, T/C (second compound 0.01 µM, first compound 0.03 µM) was 85.1% and the viability, T/C (second compound 0.01 µM, first compound 0.0949 µM) was 80.3%. For the same compound, the viability, T/C (second compound 0.01 µM, first compound 0.3 µM) was 64.1%, the viability, T/C (second compound 0.01 µM, first compound 0.949 µM) was 36.4% and the viability, T/C (second compound 0.01 µM, first compound 3 µM) was 21.9%. It also gave a viability, T/C (second compound 0.0316 µM, first compound 0.00949 µM) of 80.4%, a viability, T/C (second compound 0.0316 µM, first compound 0.03 µM) of 90.6% and a viability, T/C (second compound 0.0316 µM, first compound 0.0949 µM) of 78.7%. For the same compound, the viability, T/C (second compound 0.0316 µM, first compound 0.3 µM) was 45.7%, the viability, T/C (second compound 0.0316 µM, first compound 0.949 µM) was 30.2% and the viability, T/C (second compound 0.0316 µM, first compound 3 µM) was 23.8%. The viability, T/C (second compound 0.1 µM, first compound 0.00949 µM) was 77.6%, the viability, T/C (second compound 0.1 µM, first compound 0.03 µM) was 60.8% and the viability, T/C (second compound 0.1 µM, first compound 0.0949 µM) was 62.1%. The viability, T/C (second compound 0.1 µM, first compound 0.3 µM) was 47.4%, the viability, T/C (second compound 0.1 µM, first compound 0.949 µM) was 22.9% and the viability, T/C (second compound 0.1 µM, first compound 3 µM) was 16.8%. For the same compound, the viability, T/C (second compound 0.316 µM, first compound 0.00949 µM) was 70.2%, the viability, T/C (second compound 0.316 µM, first compound 0.03 µM) was 82.6% and the viability, T/C (second compound 0.316 µM, first compound 0.0949 µM) was 53.6%. The viability, T/C (second compound 0.316 µM, first compound 0.3 µM) was 37.1%, the viability, T/C (second compound 0.316 µM, first compound 0.949 µM) was 29.2% and the viability, T/C (second compound 0.316 µM, first compound 3 µM) was 24.2%. The viability, T/C (second compound 1 µM, first compound 0.00949 µM) was 57%, the viability, T/C (second compound 1 µM, first compound 0.03 µM) was 42% and the viability, T/C (second compound 1 µM, first compound 0.0949 µM) was 38.2%. It also gave a viability, T/C (second compound 1 µM, first compound 0.3 µM) of 19.8%, a viability, T/C (second compound 1 µM, first compound 0.949 µM) of 28.7% and a viability, T/C (second compound 1 µM, first compound 3 µM) of 12.7%.
